Literature values in patent publication US6440438B2, “Covering impregnated with insecticide” (Protec Health International Limited, priority 1997, dated 2002).

Assays:
[1] = placed directly in contact with the skin
[2] = not given; remark: listed apart in the source

**Q.** What does the source list for `CC1(C)C(C=C(Cl)Cl)C1C(=O)OCc1cccc(Oc2ccccc2)c1` (stereo not shown) [Permethrin]?
**A.** solubility in water: does not dissolve in water; proportion of the chemical absorbed by the skin [1]: about 0.5%; period within which skin sensations (numbing, burning, tingling) usually subside ([2]; contact with permethrin, reversible): twelve; toxicity to humans ([2]; in vivo): not considered toxic
